{"source": "patent US20100166727A1", "about": "“S-Adenosylmethionine And Methylthioadensosine In Chemoprevention And Treatment Of Colon Polyps And Cancer” (UNIVERSITY OF SOUTHERN CALIFORNIA, priority 2007, published 2010)", "key": {"[1]": {"system": "spermine synthase (SPM syn)", "experiment": "SPM syn expression by real-time PCR in HT-29 cells", "format": "cell-based, human", "details": "6 hrs"}, "RKO cells": {"system": "RKO cells", "experiment": "TRAIL-induced apoptosis in RKO cells (Annexin V with FACS)", "format": "cell-based, human", "details": "24 hours", "procedure": "FIG. 28. MTA sensitizes RKO cells to TRAIL-induced apoptosis. RKO cells were treated with 1 mM MTA, […] 5-FU, or 10 ng/ml TRAIL alone or in combination for 24 hours. Apoptosis was determined by Annexin V with FACS."}, "SPD syn": {"system": "SPD syn", "experiment": "SPD syn expression by real-time PCR in HT-29 cells", "format": "cell-based, human", "details": "6 hrs"}, "NCM460 cells": {"system": "NCM460 cells", "experiment": "Toxicity and apoptosis in NCM460 normal colonic epithelial cells", "format": "cell-based, human", "procedure": "In these experiments the total treatment duration was limited to 16 hrs to avoid the apoptotic effect. […] Apoptosis was measured by Hoechst staining or Annexin V and propidium iodide staining on flow cytometry."}, "[2]": {"experiment": "Stability of SAMe and MTA in culture medium without cells and in water", "format": "physicochemical", "details": "culture medium at 37° C., linear regression", "procedure": "FIG. 12. […] SAMe (A) and MTA (B) levels were measured in culture medium without cells with starting SAMe concentrations ranging from 1 to 5 mM and MTA concentration at 1 mM.\nTo test whether the mitogens-induce increase in. MAT2A is to provide increased SAMe necessary for polyamine synthesis in growing cells, SAMe and polyamine levels were measured following treatment of HT-29 cells with mitogens."}, "c-FLIP": {"system": "c-FLIP", "experiment": "c-FLIP mRNA level by real-time PCR in HT-29 cells", "format": "cell-based, human", "details": "SAMe 2 mM, MTA 1 mM, 6 hrs, mean±SE"}, "human MAT2A promoter": {"system": "human MAT2A promoter", "experiment": "Luciferase activity driven by the human MAT2A promoter in HT-29 cells", "format": "cell-based", "details": "SAMe 5 mM or MTA 1 mM, 6 hrs", "procedure": "The human MAT2A promoter construct[…] and GSS promoter construct −1686/−46-LUC were previously described (33, 34, 50), and subcloned in the sense orientation upstream of the luciferase coding sequence of the pGL-3 enhancer vector (Promega). Both promoter constructs contain maximal promoter activity.\nTo study the effect of mitogens on human MAT2A promoter activity in HT-29 cells, HT-29 cells (5×10^5 cells in 2 ml serum-free medium) were transiently transfected with 2 μg MAT2A promoter firefly luciferase gene construct or promoterless pGL3-enhancer vector (as negative control) using the Superfect Transfection Reagent (Qiagen, Valencia, Calif.) (34). To control for transfection efficiency, cells were co-transfected with the Renilla phRL-TK vector (Promega, Madison, Wis.). […] The luciferase activity driven by the MAT2A promoter construct was normalized to Renilla luciferase activity. Each experiment was done with triplicate samples."}, "MAT2β": {"system": "MAT2β", "experiment": "Colonic MAT2β mRNA in mice fed SAMe or MTA", "format": "in vivo", "details": "150 mg/kg/d SAMe, 6 days", "procedure": "FIG. 30. Effects of oral SAMe and MTA on colonic mRNA levels of MAT2A, MAT2 β, and […]. Mice were fed SAMe (150 to 450 mg/kg/d) or MTA (75 or 150 mg/kg/d) in drinking water for 6 days. Colonic mucosa was scrapped off and gene expression measured by real-time PCR."}}, "data": [{"smiles": "C[S+](CC[C@H](N)C(=O)O)C[C@H]1O[C@@H](n2cnc3c(N)ncnc32)[C@H](O)[C@@H]1O", "note": "(stereo partly shown) [SAMe, S-adenosylmethionine]", "values": [{"measurement": "SPM syn expression", "setting": "[1]; SAMe 2 mM", "value": "1.1 ± 0.02 fold of control"}, {"measurement": "SPM syn expression", "setting": "[1]; SAMe 5 mM", "value": "1.0 ± 0.01 fold of control"}, {"measurement": "TRAIL-induced apoptosis", "setting": "RKO cells", "value": "sensitized RKO cells to TRAIL-induced apoptosis"}, {"measurement": "SPD syn expression", "setting": "SPD syn; SAMe 2 mM", "value": "1.1 ± 0.02 fold of control"}, {"measurement": "SPD syn expression", "setting": "SPD syn; SAMe 5 mM", "value": "0.8 ± 0.02 fold of control"}, {"measurement": "menadione (MQ)-induced toxicity in NCM460 cells", "setting": "NCM460 cells", "value": "protected against menadione (MQ)-induced toxicity"}, {"measurement": "rate of conversion from SAMe to MTA", "setting": "[2]", "value": 0.013, "unit": "mM per hour per mM SAMe"}, {"measurement": "c-FLIP mRNA level", "setting": "c-FLIP", "value": "70±2 % of control"}, {"measurement": "human MAT2A promoter activity", "setting": "human MAT2A promoter", "value": "lower the promoter activity"}, {"measurement": "inhibition of MAT2β expression", "setting": "MAT2β", "value": 50, "unit": "%"}]}]}
